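Results reflect a 48-hour exposure of cells in 96-well plates to compound at five concentrations. TGI denotes the concentration required for complete inhibition of growth.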
What was measured:
Experiment in all cases: inhibition of tumour cell growth, NCI panel, 48 h
SNB-75 CNS = tested on: SNB-75 CNS
UACC-257 melanoma = tested on: UACC-257 melanoma
HCC-2998 colon = tested on: HCC-2998 colon
NCI/ADR-RES ovarian = tested on: NCI/ADR-RES ovarian
SK-OV-3 ovarian = tested on: SK-OV-3 ovarian
T-47D breast = tested on: T-47D breast
SR leukemia = tested on: SR leukemia
UACC-62 melanoma = tested on: UACC-62 melanoma
SK-MEL-2 melanoma = tested on: SK-MEL-2 melanoma
SN12C renal = tested on: SN12C renal
U251 CNS = tested on: U251 CNS
MOLT-4 leukemia = tested on: MOLT-4 leukemia
RXF 393 renal = tested on: RXF 393 renal
HT29 colon = tested on: HT29 colon
SW-620 colon = tested on: SW-620 colon
SF-268 CNS = tested on: SF-268 CNS
M14 melanoma = tested on: M14 melanoma
NCI-H226 lung = tested on: NCI-H226 lung
MDA-N = tested on: MDA-N

Row | Compound | TGI (SNB-75 CNS) [µM] | TGI (UACC-257 melanoma) [µM] | TGI (HCC-2998 colon) [µM] | TGI (NCI/ADR-RES ovarian) [µM] | TGI (SK-OV-3 ovarian) [µM] | TGI (T-47D breast) [µM] | TGI (SR leukemia) [µM] | TGI (UACC-62 melanoma) [µM] | TGI (SK-MEL-2 melanoma) [µM] | TGI (SN12C renal) [µM] | TGI (U251 CNS) [µM] | TGI (MOLT-4 leukemia) [µM] | TGI (RXF 393 renal) [µM] | TGI (HT29 colon) [µM] | TGI (SW-620 colon) [µM] | TGI (SF-268 CNS) [µM] | TGI (M14 melanoma) [µM] | TGI (NCI-H226 lung) [µM] | TGI (MDA-N) [µM]
1 | C=C1CC[C@H](O)C(C)(C)[C@@H]1CC/C(C)=C/CC/C=C(\C)CC/C=C(\C)CCC=C(C)C | > 100 | > 100 | > 100 | > 100 | > 100 | 59.3 | > 100 | > 100 | > 100 | > 100 | > 100 | > 100 | 51.9 | > 100 | > 100 | > 100 | > 100 | > 100 | > 100
2 | Cc1cccc2c(N)c3cccc(C(=O)NCC[N+](C)(C)Cc4c([N+](=O)[O-])ncn4C)c3nc12 | > 100 | > 100 | > 95.7 | > 100 | > 71.1 | > 100 | > 100 | > 100 | > 100 | > 100 | > 100 | > 100 | > 100 | > 40.4 | > 100 | > 100 | > 100 | > 100 | > 100
3 | CC(=O)N[C@@H](Cc1ccc(O)cn1)C(=O)NCc1cccc(Cl)c1 |  | > 100 | > 100 | > 100 | > 100 | > 100 | > 100 | > 100 | > 100 | > 100 | > 100 | > 100 | > 100 | > 100 | > 100 | > 100 | > 100 | > 100 | > 100
4 | O=C1N[C@@H](c2c[nH]c3cc(Br)ccc23)C(=O)N[C@H]1c1c[nH]c2cc(Br)ccc12 | 90.1 | > 100 | > 100 | > 100 | > 100 | > 100 | > 100 | > 100 | > 100 | > 100 | 60.1 |  | > 100 | > 100 | > 100 | > 100 | > 100 | > 100 | > 100
5 | CNc1nc2n(CCO)c(-c3ccccc3)c(-c3ccccc3)nc-2c(=O)n1 | > 50 | > 50 | > 50 | > 50 | > 50 | > 50 | > 50 | > 50 | > 50 | > 50 | > 50 | > 50 | > 50 | > 50 | > 50 | > 50 | > 50 | > 50 | > 50
6 | CCn1c(SCC(=O)NNC(=S)Nc2ccc(C)cc2)nc2ccccc2c1=O | > 100 | > 100 | > 100 | > 100 | > 100 | > 100 | > 100 | > 100 | > 100 | > 100 | > 100 | > 100 | > 100 | > 100 | > 100 | > 100 | > 100 | > 100 | > 100
7 | Cc1ccc(C)c(COCCOCn2ccc(N)nc2=O)c1 | > 100 | > 100 | > 100 | > 100 | > 100 | > 100 | > 100 | > 100 | > 100 | > 100 | > 100 | > 100 | > 100 |  | > 100 | > 100 | > 100 | > 100 | > 100
8 | O=C1O/C(=C(/Br)c2ccc(Cl)c(Cl)c2)c2ccccc21 | > 10 | > 10 | > 10 | > 10 | > 10 | > 10 | > 10 | > 10 | > 10 | > 10 | > 10 | > 10 | > 10 | > 10 | > 10 | > 10 | > 10 | > 10 | > 10
9 | COC(=O)C1=C(C(=O)OC)c2cc(OC)ccc2C(C(=S)N(C)C)S1 (centres undefined) | > 100 | > 100 | > 100 | > 100 | > 100 | > 100 | > 100 | > 100 | > 100 | > 100 | > 100 | > 100 | > 100 |  | > 100 | > 100 | > 100 | > 100 | > 100
10 | O=C1CCCC2(c3ccccc3)Nc3ccccc3N12 (centres undefined) | > 100 | > 100 | > 100 | > 100 | > 100 | > 100 | > 100 | > 100 | > 100 | > 100 | > 100 | > 100 | > 100 | > 100 | > 100 | > 100 | > 100 | > 100 | > 100
11 | Cc1ccc(/C=C2\CCC/C(=C\c3ccc(O)c(CN4CCCCC4)c3)C2=O)cc1 | 22.6 | 25.3 | 15.3 | 12 | 26.3 | 60.2 | 8.62 | 9.92 | > 54.8 | 26.5 | 37.6 | 9.03 | 27.1 | 3.78 | 17.7 | 13 | > 37.7 | 23.3 | 25.2
12 | COC(=O)CCc1cc(O)c2c(c1)C(C(=O)OC)C(c1ccc(O)c(O)c1)O2 (centres undefined) | 8.41 | > 100 | 39.8 | > 100 | > 93 | > 72.3 | > 25.5 | > 100 | > 100 | > 88.7 | > 95 | > 88.8 | > 100 | > 96.4 | > 100 | > 100 | > 100 | > 75 | 13.3
